Assays:
Hepatotoxicity [1] = test system: Hepatotoxicity;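 on HepSE bilirubinemia: bilirubinemia hepatic side effect score drawn from the DILIps training data, a prediction system for drug-induced liver injury; call rule not given here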;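 on HepSE cholecystitis: Cholecystitis-related hepatic side effect score drawn from the DILIps (drug-induced liver injury prediction) training data set; call rule not given here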;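 on HepSE cholelithiasis: hepatic side effect score for cholelithiasis, drawn from the DILIps training data for predicting drug-induced liver injury; call rule not given here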;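 on HepSE cirrhosis: cirrhosis hepatic side effect score taken from the DILIps (drug-induced liver injury prediction) training set; call rule not given here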;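 on HepSE elevated liver function tests: hepatic side effect score for raised liver function tests, as recorded in the DILIps training set used for predicting drug-induced liver injury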; on HepSE hepatic failure: call rule not given here;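 on HepSE hepatomegaly: hepatic side effect score for hepatomegaly, taken from the training set of the DILIps drug-induced liver injury prediction system; call rule not given here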
Hepatotoxicity [2] = test system: Hepatotoxicity; remark: listed apart in the source;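 on HepSE bilirubinemia: bilirubinemia hepatic side effect score drawn from the DILIps training data, a prediction system for drug-induced liver injury; call rule not given here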;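 on HepSE cholecystitis: Cholecystitis-related hepatic side effect score drawn from the DILIps (drug-induced liver injury prediction) training data set; call rule not given here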;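 on HepSE cholelithiasis: hepatic side effect score for cholelithiasis, drawn from the DILIps training data for predicting drug-induced liver injury; call rule not given here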;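 on HepSE cirrhosis: cirrhosis hepatic side effect score taken from the DILIps (drug-induced liver injury prediction) training set; call rule not given here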;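 on HepSE elevated liver function tests: hepatic side effect score for raised liver function tests, as recorded in the DILIps training set used for predicting drug-induced liver injury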; on HepSE hepatic failure: call rule not given here;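 on HepSE hepatomegaly: hepatic side effect score for hepatomegaly, taken from the training set of the DILIps drug-induced liver injury prediction system; call rule not given here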
Hepatotoxicity [3] = test system: Hepatotoxicity; remark: listed apart in the source;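 on HepSE bilirubinemia: bilirubinemia hepatic side effect score drawn from the DILIps training data, a prediction system for drug-induced liver injury; call rule not given here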;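 on HepSE cholecystitis: Cholecystitis-related hepatic side effect score drawn from the DILIps (drug-induced liver injury prediction) training data set; call rule not given here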;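 on HepSE cholelithiasis: hepatic side effect score for cholelithiasis, drawn from the DILIps training data for predicting drug-induced liver injury; call rule not given here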;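 on HepSE cirrhosis: cirrhosis hepatic side effect score taken from the DILIps (drug-induced liver injury prediction) training set; call rule not given here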;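 on HepSE elevated liver function tests: hepatic side effect score for raised liver function tests, as recorded in the DILIps training set used for predicting drug-induced liver injury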; on HepSE hepatic failure: call rule not given here
Hepatotoxicity [4] = test system: Hepatotoxicity; remark: listed apart in the source;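 on HepSE bilirubinemia: bilirubinemia hepatic side effect score drawn from the DILIps training data, a prediction system for drug-induced liver injury; call rule not given here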;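 on HepSE cholecystitis: Cholecystitis-related hepatic side effect score drawn from the DILIps (drug-induced liver injury prediction) training data set; call rule not given here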;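 on HepSE cholelithiasis: hepatic side effect score for cholelithiasis, drawn from the DILIps training data for predicting drug-induced liver injury; call rule not given here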;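 on HepSE cirrhosis: cirrhosis hepatic side effect score taken from the DILIps (drug-induced liver injury prediction) training set; call rule not given here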;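 on HepSE elevated liver function tests: hepatic side effect score for raised liver function tests, as recorded in the DILIps training set used for predicting drug-induced liver injury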; on HepSE hepatic failure: call rule not given here
Hepatotoxicity [5] = test system: Hepatotoxicity; remark: listed apart in the source; on HepSE hepatic failure: call rule not given here
Hepatotoxicity [6] = test system: Hepatotoxicity; remark: listed apart in the source; on HepSE hepatic failure: call rule not given here
Hepatotoxicity [7] = test system: Hepatotoxicity; remark: listed apart in the source
Hepatotoxicity [8] = test system: Hepatotoxicity; remark: listed apart in the source
Hepatotoxicity [9] = test system: Hepatotoxicity; remark: listed apart in the source
Hepatotoxicity [10] = test system: Hepatotoxicity; remark: listed apart in the source
Hepatotoxicity [11] = test system: Hepatotoxicity; remark: listed apart in the source
Hepatotoxicity [12] = test system: Hepatotoxicity; remark: listed apart in the source
Hepatotoxicity [13] = test system: Hepatotoxicity; remark: listed apart in the source
Hepatotoxicity [14] = test system: Hepatotoxicity; remark: listed apart in the source

SMILES | HepSE_bilirubinemia (Hepatotoxicity [1]) | HepSE_cholecystitis (Hepatotoxicity [2]) | HepSE_cholelithiasis (Hepatotoxicity [3]) | HepSE_cirrhosis (Hepatotoxicity [4]) | HepSE_elevated liver function tests (Hepatotoxicity [5]) | HepSE_hepatic failure (Hepatotoxicity [6]) | HepSE_hepatic necrosis (Hepatotoxicity [7]) | HepSE_hepatitis (Hepatotoxicity [8]) | HepSE_hepatomegaly (Hepatotoxicity [9]) | HepSE_jaundice (Hepatotoxicity [10]) | HepSE_liver disease (Hepatotoxicity [11]) | HepSE_liver fatty (Hepatotoxicity [12]) | HepSE_liver function tests abnormal (Hepatotoxicity [13]) | HepSE_Combined Scores (Hepatotoxicity [14]) | other results
CC(=O)CCCCn1c(=O)c2c(ncn2C)n(C)c1=O [PENTOXIFYLLINE] | 0 | 1 | 0 | 0 | 0 | 0 | 0 | 1 | 0 | 1 | 0 | 0 | 0 | 3 | 
CCCN1C[C@H](CSC)C[C@@H]2c3cccc4[nH]cc(c34)C[C@H]21 [PERGOLIDE] | 0 | 1 | 1 | 0 | 0 | 0 | 0 | 1 | 1 | 1 | 0 | 0 | 1 | 6 | 
CCC[C@H](N[C@@H](C)C(=O)N1[C@H](C(=O)O)C[C@@H]2CCCC[C@@H]21)C(=O)OCC [PERINDOPRIL] | 0 | 0 | 0 | 0 | 0 | 1 | 0 | 1 | 0 | 1 | 0 | 0 | 0 | 3 | 
CC1(C)C(C=C(Cl)Cl)C1C(=O)OCc1cccc(Oc2ccccc2)c1 (stereo not drawn) [PERMETHRIN] | 0 | 0 | 0 | 0 | 0 | 0 | 0 | 0 | 0 | 0 | 0 | 0 | 0 | 0 | 
OCCN1CCN(CCCN2c3ccccc3Sc3ccc(Cl)cc32)CC1 [PERPHENAZINE] | 0 | 0 | 0 | 0 | 0 | 0 | 0 | 0 | 0 | 1 | 0 | 0 | 0 | 1 | 
NNCCc1ccccc1 [PHENELZINE] |  |  |  |  |  |  |  |  |  |  |  |  |  |  | HepSE_bilirubinemia (Hepatotoxicity [1]; Liver): 0; HepSE_cholecystitis (Hepatotoxicity [2]; Liver): 0; HepSE_cholelithiasis (Hepatotoxicity [3]; Liver): 0; HepSE_cirrhosis (Hepatotoxicity [4]; Liver): 0; HepSE_elevated liver function tests (Hepatotoxicity [5]; Liver): 0; HepSE_hepatic failure (Hepatotoxicity [6]; Liver): 0; HepSE_hepatic necrosis (Hepatotoxicity [7]; Liver): 0; HepSE_hepatitis (Hepatotoxicity [8]; Liver): 0; HepSE_hepatomegaly (Hepatotoxicity [9]; Liver): 0; HepSE_jaundice (Hepatotoxicity [10]; Liver): 1; HepSE_liver disease (Hepatotoxicity [11]; Liver): 0; HepSE_liver fatty (Hepatotoxicity [12]; Liver): 0; HepSE_liver function tests abnormal (Hepatotoxicity [13]; Liver): 0; HepSE_Combined Scores (Hepatotoxicity [14]; Liver): 1
CC(COc1ccccc1)N(CCCl)Cc1ccccc1 (stereo not drawn) [PHENOXYBENZAMINE] | 0 | 0 | 0 | 0 | 0 | 0 | 0 | 0 | 0 | 0 | 0 | 0 | 0 | 0 | 
